Reference: ChEMBL document CHEMBL1201862, “PubChem BioAssay data set” (2004)
Calls of active or inactive are those of the source.

Tests used:
Prothrombin = Prothrombin (Homo sapiens, UniProt P00734); test: Thrombin 1536 HTS Dose Response Confirmation. [Related pubchem assays: 1046 (Thrombin 1536 HTS; hits were confirmed in this assay)]; assay type: functional
[1] = M. tuberculosis growth inhibition, HTS (AID 449762); assay type: functional
[2] = microbe, parasite or virus in culture; assay type: functional; conditions: Mycobacterium tuberculosis
[3] = NIH-3T3 fibroblast cytotoxicity, dose response, cytotoxicity control, cell-based, fluorescence, Alamar Blue, secondary assay (AID 2327); assay type: functional;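 also: NIH-3T3 mouse fibroblasts cultured with fluconazole at 8 µg/mL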
[4] = (§1) Counterscreen for antagonists of the orexin 1 receptor (OX1R; HCRTR1): Fluorescence-based cell-based high throughput dose response assay to identify antagonists of the parental CHO cell line. [Related pubchem assays (depositor defined):AID434989, AID435008, AID463079, AID485270, AID492963, AID492964, AID492965, AID493232, AID504699, AID504701]; assay type: functional
Orexin receptor type 2 [5] = molecular target: T1, Orexin receptor type 2 (Homo sapiens, UniProt O43614); test: Counterscreen assay for antagonists of the orexin 1 receptor (OX1R; HCRTR1): Homogeneous Time Resolved Fluorescence (HTRF)-based cell-based dose response assay for antagonists of the orexin 2 receptor (OX2R; HCRTR2), run by assay provider.; assay type: functional
T1 sequence (O43614 whole entry): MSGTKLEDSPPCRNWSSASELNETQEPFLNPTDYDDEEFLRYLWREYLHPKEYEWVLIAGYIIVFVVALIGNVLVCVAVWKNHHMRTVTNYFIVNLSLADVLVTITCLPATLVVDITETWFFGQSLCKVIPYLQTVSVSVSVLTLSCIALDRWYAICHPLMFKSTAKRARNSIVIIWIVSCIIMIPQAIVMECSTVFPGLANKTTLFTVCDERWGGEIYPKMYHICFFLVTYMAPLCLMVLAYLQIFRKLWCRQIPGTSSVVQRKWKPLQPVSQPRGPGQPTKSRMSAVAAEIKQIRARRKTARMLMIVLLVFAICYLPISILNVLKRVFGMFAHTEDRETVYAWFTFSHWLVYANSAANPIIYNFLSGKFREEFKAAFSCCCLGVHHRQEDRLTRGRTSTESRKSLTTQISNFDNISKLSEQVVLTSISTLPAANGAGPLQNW

cells [6] = assay type: functional, cell-based
BJ [7] = test: BJ-TERT fibroblast viability loss – cell-based, RAS-independent, luminescence, dose response (AID 1933); assay type: functional; conditions: Homo sapiens
[8] = DRD fibroblast viability loss – cell-based, non-viral oncogenic, luminescence, dose response (AID 1934); assay type: functional; conditions: Homo sapiens
CHO-K1 = test: as §1, with “Homogeneous time resolved fluorescence (HTRF)-based” for “Fluorescence-based”, “cell-based” for “cell-based high throughput”, “CHO-K1” for “CHO”; assay type: functional; conditions: Cricetulus griseus;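 also: potency for inhibition of ATP-stimulated IP1 production as antagonists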
Orexin receptor type 2 [9] = molecular target: T1, Orexin receptor type 2; test: Counterscreen assay for antagonists of the orexin 1 receptor (OX1R; HCRTR1): Fluorescence-based cell-based dose response assay for antagonists of the orexin 2 receptor (OX2R; HCRTR2), run by assay provider.; assay type: functional
[10] = molecular target: T2, Orexin/Hypocretin receptor type 1 (Homo sapiens, UniProt O43613); test: Homogeneous Time Resolved Fluorescence (HTRF)-based cell-based high throughput dose response assay for antagonists of the orexin 1 receptor (OX1R; HCRTR1). [Related pubchem assays (depositor defined):AID434989, AID435008, AID463079, AID485270, AID492963, AID492964, AID492965, AID493232, AID504717, AID504718]; assay type: functional
T2 sequence (O43613 whole entry): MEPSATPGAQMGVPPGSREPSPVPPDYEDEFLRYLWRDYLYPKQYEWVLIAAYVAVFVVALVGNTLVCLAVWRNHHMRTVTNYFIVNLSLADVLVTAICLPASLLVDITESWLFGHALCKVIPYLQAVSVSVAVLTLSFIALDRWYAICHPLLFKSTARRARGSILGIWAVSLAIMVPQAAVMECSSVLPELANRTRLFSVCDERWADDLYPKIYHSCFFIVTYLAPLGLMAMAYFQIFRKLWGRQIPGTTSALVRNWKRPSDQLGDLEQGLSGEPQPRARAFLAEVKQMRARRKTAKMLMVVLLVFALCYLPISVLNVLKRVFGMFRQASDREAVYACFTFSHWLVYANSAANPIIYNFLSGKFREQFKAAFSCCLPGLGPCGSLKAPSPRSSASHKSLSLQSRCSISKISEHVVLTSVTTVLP

BJ [11] = test: cells; assay type: functional, cell-based; conditions: Homo sapiens
cells [12] = assay type: functional, cell-based; remark: listed apart in the source
BJ [13] = test: BJ-TERT-LT-ST fibroblast viability loss – cell-based, RAS-independent, luminescence, dose response (AID 1935); assay type: functional; conditions: Homo sapiens;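 also: BJ fibroblasts immortalized with TERT plus LT and ST oncogenes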
[14] = molecular target: T3, RNA-binding protein pos-1 (Caenorhabditis elegans, UniProt G5EF15); test: disruptors of C. elegans POS-1 RNA interaction – biochemical, fluorescence polarization, dose response (AID 1964);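 also: purified POS-1 fused to maltose binding protein made in E. coli; potency of compounds blocking POS-1 binding to fluorescent RNA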
T3 sequence (G5EF15 whole entry): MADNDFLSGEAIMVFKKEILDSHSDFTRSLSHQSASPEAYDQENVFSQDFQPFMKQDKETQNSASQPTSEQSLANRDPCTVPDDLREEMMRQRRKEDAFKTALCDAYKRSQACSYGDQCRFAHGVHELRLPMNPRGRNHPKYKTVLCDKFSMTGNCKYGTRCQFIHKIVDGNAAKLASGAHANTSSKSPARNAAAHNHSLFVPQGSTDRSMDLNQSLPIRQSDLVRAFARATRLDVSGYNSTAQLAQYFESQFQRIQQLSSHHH

[15] = fluconazole-exposed Candida albicans growth modulators – fluorescence, retest, confirmation (AID 2467); assay type: functional, cell-based
[16] = molecular target: T4, Zinc finger protein mex-5 (Caenorhabditis elegans, UniProt Q9XUB2); test: potency of MEX-5 RNA-binding blockers – biochemical, C. elegans, fluorescence polarization, dose response (AID 1960)
T4 sequence (Q9XUB2 whole entry): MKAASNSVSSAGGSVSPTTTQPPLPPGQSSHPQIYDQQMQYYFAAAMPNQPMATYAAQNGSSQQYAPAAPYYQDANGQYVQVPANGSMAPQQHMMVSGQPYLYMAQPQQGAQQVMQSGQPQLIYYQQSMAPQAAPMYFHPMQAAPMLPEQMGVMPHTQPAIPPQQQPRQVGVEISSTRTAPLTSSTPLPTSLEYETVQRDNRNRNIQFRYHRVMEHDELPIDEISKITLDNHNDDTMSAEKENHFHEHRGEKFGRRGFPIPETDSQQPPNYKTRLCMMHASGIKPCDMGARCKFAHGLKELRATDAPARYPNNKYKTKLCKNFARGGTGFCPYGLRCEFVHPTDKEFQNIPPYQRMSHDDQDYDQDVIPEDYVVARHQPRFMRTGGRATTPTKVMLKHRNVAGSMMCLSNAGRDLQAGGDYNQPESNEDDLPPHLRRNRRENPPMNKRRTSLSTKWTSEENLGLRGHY

INS1 = test: INS-1E survival protection against cytokine death – cell-based, luminescence, retest, dose response (AID 449756); assay type: functional; conditions: Rattus norvegicus;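 also: cell death triggered by IL-1 beta plus TNF-alpha plus IFN-gamma mixture; protective hits raise ATP signal compared with cytokine alone wells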
[17] = molecular target: T2, Orexin/Hypocretin receptor type 1; test: Fluorescence-based cell-based high throughput dose response assay for antagonists of the orexin 1 receptor (OX1R; HCRTR1). [Related pubchem assays (depositor defined):AID434989, AID435008, AID463079, AID485270, AID492963, AID492964, AID492965, AID493232, AID504717, AID504718]; assay type: functional
BJ [18] = test: growth inhibition of engineered Ras-driven BJ cells – cell-based, alamar blue fluorescence, cherrypicked samples, dose response (AID 2631); assay type: functional; conditions: Homo sapiens;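 also: confirmatory dose-response assay in RAS-dependent BJ fibroblasts engineered with TERT, LT and ST, with cytotoxicity read by fluorescence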
Vero = test: mammalian cell viability reduction – secondary assay, cytotoxicity control for West Nile virus antiviral project, dose response (AID 1650); assay type: functional; conditions: Chlorocebus sabaeus
Ephrin type-A receptor 4 = Ephrin type-A receptor 4 (Mus musculus, UniProt Q03137); test: EphA4 ligand-binding antagonists – biochemical, colorimetric, mouse EphA4, primary screen (AID 689); assay type: functional
[19] = molecular target: Induced myeloid leukemia cell differentiation protein Mcl-1 (Homo sapiens, UniProt Q07820); assay type: functional
[20] = molecular target: T5, Heat shock factor protein 1 (Mus musculus, UniProt P38532); test: enhancement of HSF1-driven luciferase signal – cell-based, NIH3T3, luminescence, dose retest, confirmation (AID 435004); assay type: functional;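 also: stress induced by proteasome inhibitor MG132 added 30 min after compound; luciferase reporter driven by HSF1 response element in NIH3T3 cells; actives raise luminescence as potentiators of the MG132 stress response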
T5 sequence (P38532 whole entry): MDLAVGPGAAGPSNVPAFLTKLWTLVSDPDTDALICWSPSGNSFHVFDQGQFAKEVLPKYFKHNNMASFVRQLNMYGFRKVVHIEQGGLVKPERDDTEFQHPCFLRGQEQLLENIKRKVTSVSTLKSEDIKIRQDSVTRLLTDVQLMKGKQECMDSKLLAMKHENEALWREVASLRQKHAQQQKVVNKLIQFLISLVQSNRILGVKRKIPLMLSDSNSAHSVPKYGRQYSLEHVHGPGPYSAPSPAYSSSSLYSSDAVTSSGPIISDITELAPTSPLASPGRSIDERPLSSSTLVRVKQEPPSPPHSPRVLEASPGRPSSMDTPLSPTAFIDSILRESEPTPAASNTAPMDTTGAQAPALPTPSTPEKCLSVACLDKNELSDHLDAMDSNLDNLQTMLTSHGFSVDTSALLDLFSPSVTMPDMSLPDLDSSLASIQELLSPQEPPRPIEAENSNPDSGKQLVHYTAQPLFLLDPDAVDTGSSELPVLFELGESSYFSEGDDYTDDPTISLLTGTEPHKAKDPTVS

cells [21] = assay type: functional
[22] = NIH3T3 cell viability loss – ATP luminescence, mouse fibroblasts, counter-screen, dose response (AID 2010); assay type: functional, cell-based;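 also: cells exposed to compound for about 90 hours before reading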
[23] = Trypanosoma cruzi growth suppression in host cells – NIH3T3 host cells, beta-gal luminescence, confirmation (AID 2044); assay type: functional, cell-based;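 also: intracellular parasites grown in NIH/3T3 mouse fibroblasts as host cells; luminescent beta-galactosidase reporter signal from transgenic T. cruzi replicating inside host cells; inhibitors lower the luminescence signal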
[24] = THP-1 cell cytotoxicity, dose response, cytotoxicity control for non-replicating M. tuberculosis project (AID 489025); assay type: functional
cells [25] = test: cells
[26] = molecular target: T6, Microphthalmia-associated transcription factor (Homo sapiens, UniProt O75030); test: reducers of TRPM1 reporter luminescence, concentration series – cell-based, SK-MEL-5, cherry-picked, set 3, MITF inhibitor project, dose response (AID 493073); assay type: functional;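 also: SK-MEL-5 melanoma cells with luciferase driven by the MITF target TRPM1 promoter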
T6 sequence (O75030 whole entry): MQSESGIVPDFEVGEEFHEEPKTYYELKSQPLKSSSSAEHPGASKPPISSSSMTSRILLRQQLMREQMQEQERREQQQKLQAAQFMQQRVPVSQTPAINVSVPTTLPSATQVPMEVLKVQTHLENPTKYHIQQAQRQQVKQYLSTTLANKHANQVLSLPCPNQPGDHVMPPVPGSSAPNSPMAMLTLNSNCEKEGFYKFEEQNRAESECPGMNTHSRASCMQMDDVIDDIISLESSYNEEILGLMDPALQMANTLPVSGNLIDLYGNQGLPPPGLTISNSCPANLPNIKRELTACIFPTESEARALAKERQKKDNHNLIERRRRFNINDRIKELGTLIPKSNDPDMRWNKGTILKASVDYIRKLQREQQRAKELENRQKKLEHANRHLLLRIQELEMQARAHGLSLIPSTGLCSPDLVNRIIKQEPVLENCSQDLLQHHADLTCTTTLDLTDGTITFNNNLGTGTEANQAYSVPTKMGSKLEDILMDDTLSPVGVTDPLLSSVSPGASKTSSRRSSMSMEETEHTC

[27] = viability of uninfected HEp-2 cells – cell-based, HTS, cytotoxicity control for RSV inhibitor project, dose response (AID 2410); assay type: functional; conditions: human respiratory syncytial virus

Sequence of Induced myeloid leukemia cell differentiation protein Mcl-1 (Q07820 whole entry): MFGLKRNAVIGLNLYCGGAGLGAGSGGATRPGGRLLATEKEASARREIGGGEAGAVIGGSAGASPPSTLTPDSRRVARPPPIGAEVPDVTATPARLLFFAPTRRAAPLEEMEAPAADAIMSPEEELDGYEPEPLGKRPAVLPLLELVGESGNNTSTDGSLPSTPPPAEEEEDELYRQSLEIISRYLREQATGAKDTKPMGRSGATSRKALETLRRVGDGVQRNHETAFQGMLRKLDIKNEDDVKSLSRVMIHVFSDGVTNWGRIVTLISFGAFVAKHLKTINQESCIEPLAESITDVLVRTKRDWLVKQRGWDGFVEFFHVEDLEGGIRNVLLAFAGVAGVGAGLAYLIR
Sequence of Ephrin type-A receptor 4 (Q03137 whole entry): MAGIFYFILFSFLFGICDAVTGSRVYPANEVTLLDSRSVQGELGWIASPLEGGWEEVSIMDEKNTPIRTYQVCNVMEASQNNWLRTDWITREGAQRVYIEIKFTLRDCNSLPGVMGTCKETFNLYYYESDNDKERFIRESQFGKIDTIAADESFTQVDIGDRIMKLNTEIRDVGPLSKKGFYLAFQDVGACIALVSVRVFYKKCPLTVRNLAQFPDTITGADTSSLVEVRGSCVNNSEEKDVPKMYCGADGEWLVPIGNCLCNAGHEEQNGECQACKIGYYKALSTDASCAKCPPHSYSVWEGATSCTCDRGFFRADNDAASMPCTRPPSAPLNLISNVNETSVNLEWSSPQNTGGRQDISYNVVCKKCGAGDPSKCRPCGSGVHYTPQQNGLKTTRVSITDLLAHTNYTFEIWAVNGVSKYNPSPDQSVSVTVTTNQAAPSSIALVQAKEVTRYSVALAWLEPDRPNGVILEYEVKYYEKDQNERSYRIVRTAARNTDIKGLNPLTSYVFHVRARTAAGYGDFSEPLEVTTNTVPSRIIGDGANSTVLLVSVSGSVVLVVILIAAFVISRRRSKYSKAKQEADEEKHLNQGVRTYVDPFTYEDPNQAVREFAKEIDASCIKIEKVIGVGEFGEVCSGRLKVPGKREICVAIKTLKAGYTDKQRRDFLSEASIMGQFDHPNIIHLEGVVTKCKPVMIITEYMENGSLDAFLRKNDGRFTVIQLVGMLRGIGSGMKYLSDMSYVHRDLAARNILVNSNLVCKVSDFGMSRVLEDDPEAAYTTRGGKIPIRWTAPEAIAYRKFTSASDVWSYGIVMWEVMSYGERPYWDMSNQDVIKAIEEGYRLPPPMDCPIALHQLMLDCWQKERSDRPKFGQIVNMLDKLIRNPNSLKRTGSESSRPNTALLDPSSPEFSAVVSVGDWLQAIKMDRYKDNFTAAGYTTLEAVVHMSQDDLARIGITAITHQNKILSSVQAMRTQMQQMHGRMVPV

With `COc1ccccc1C(=O)n1nc(-c2ccco2)nc1SC` the IC50 (Prothrombin) was 0.001 µM (active).

In the case of `COc1ccc(-c2c(-c3cc(OC)cc(OC)c3)n(C)c3ccc(-c4cc[nH]n4)cc23)cc1`, the IC50 [1] is reported as > 100 µM (active) and the CC50 [2] is reported as > 40 µM (active).

With `CCN(CC)c1ccc(/C=N/NC(=O)c2ccco2)c(O)c1` the EC50 [3] was 2.76 µM (inconclusive), the IC50 [4] was > 49.8 µM (inactive) and the IC50 (Orexin receptor type 2 [5]) was > 50 µM (inactive). The EC50 (cells [6]) was 9.18 µM (active), the EC50 (BJ [7]) was 2.7 µM (inconclusive) and the EC50 [8] was 2.58 µM (active). For the same compound, the IC50 (CHO-K1) was > 66.3 µM (inactive), the IC50 (Orexin receptor type 2 [9]) was > 88.8 µM (inactive) and the IC50 [10] was 2.83 µM (active). The EC50 (BJ [11]) was 3.34 µM (active), the EC50 (cells [12]) was 10.3 µM (active) and the EC50 (BJ [13]) was 2.66 µM (active). The EC50 [14] was > 300 µM (not active), the EC50 [15] was 0.787 µM (active) and the EC50 [16] was > 300 µM (not active). The AC50 (INS1) was 0.638 µM (active), the IC50 [17] was 4.03 µM (active) and the EC50 (BJ [18]) was 0.966 µM (active). For the same compound, the CC50 (Vero) was 5.13 µM (active).

For `CCN(CCO)c1nc(SC)nc2c1sc1nc(-c3ccco3)c3c(c12)CCC3`, the IC50 (Ephrin type-A receptor 4) was 24.1 µM (active), the IC50 [19] was 1.85 µM (active) and the EC50 [20] was 66.5 µM (active).

For `Cc1cc(C)cc(OCC(=O)N/N=C/c2ccc([N+](=O)[O-])o2)c1`, the IC50 (cells [21]) was 2.7 µM (active), the EC50 [22] was 33.5 µM (active) and the EC50 [23] was < 0.1 µM (active). The CC50 [24] was 31.5 µM (active), the EC50 (cells [25]) was 0.153 µM (active) and the AC50 [26] was 7.12 µM (active).

With `CCOC(=O)c1ccc(/N=C2\SC(C(=O)Nc3ccc(C(=O)O)cc3)CC(=O)N2Cc2cccs2)cc1` (stereo not given) the CC50 [27] was 13 µM (active), the CC50 [24] was > 40 µM (active) and the IC50 [1] was > 100 µM (active).

With `Cn1c(SCC(=O)c2ccc3c(c2)NC(=O)CO3)nc2ccccc21` the IC50 (Prothrombin) was > 50 µM (not active).
